In PMC7614720 (European journal of medicinal chemistry, 2021):

Key:
OXA-48 = OXA-48 (Klebsiella pneumoniae, UniProt Q6XEC0); assay: 1H NMR of enzymatic hydrolysis products; assay type: biochemical
NDM-1 = NDM-1 (Klebsiella pneumoniae, UniProt C7C422); assay: 1H NMR of enzymatic hydrolysis products; assay type: biochemical
Chain of NDM-1 (C7C422 29-270, looked up): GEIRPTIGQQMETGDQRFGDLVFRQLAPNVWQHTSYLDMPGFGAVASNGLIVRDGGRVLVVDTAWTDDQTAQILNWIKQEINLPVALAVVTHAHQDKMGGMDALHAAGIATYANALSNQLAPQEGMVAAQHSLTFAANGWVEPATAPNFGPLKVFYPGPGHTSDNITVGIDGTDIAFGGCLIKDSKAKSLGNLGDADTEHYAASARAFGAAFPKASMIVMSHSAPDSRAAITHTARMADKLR

Chain of OXA-48 (Q6XEC0 23-265 limits assumed): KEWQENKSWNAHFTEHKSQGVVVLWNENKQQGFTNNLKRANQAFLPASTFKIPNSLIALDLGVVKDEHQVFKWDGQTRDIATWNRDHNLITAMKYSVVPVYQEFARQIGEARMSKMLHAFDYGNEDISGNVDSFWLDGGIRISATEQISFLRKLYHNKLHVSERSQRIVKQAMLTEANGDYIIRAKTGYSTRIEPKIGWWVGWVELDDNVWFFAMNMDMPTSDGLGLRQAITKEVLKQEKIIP

`C[C@@H](O)[C@H]1C(=O)N2C(C(=O)O)=C([C@H]3CCCO3)S[C@H]12` [faropenem] was tested, and the “1H NMR of enzymatic hydrolysis products (5 μM enzyme, 55 min)” value (OXA-48) was “the class D SBLs OXA-10, OXA-23 and OXA-48 and the B1 MBLs NDM-1 and VIM-1” and the “1H NMR of enzymatic hydrolysis products (5 μM enzyme, 5 min)” value (NDM-1) was “we subsequently studied the reaction of faropenem with other SBLs/MBLs”.
